Results as given in ChEMBL document CHEMBL1201862, “PubChem BioAssay data set” (2004).
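Results reflect a 48-hour exposure of cells in 96-well plates to compound at five concentrations. Abbreviation: GI50, concentration required for 50% inhibition of growth.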 The source made the active and inactive calls. No stated cut-off is given here; in the data, active = GI50 up to about 1.1 µM and inactive = higher.

Tests used:
Experiment in all cases: NCI tumour cell line growth inhibition, 48 h
HCT-116 = test system: HCT-116
UACC-62 = test system: UACC-62
CAKI-1 = test system: CAKI-1
DMS-114 = test system: DMS-114
SF-295 = test system: SF-295
ACHN = test system: ACHN
786-0 = test system: 786-0
OVCAR-4 = test system: OVCAR-4
OVCAR-3 = test system: OVCAR-3
NCI-H226 = test system: NCI-H226
SR = test system: SR
HL-60 = test system: HL-60
SNB-75 = test system: SNB-75
SN12C = test system: SN12C
OVCAR-5 = test system: OVCAR-5
KM-20L2 = test system: KM-20L2
HCC 2998 = test system: HCC 2998
HCT-15 = test system: HCT-15

For `C=CCC1(CN(C)C)CC/C(=C\c2cc(OC)c(OC)c(OC)c2)C1=O` (stereo not drawn), the GI50 (HCT-116) was 17.5 µM (inactive), the GI50 (UACC-62) was 21.3 µM (inactive) and the GI50 (CAKI-1) was 19.4 µM (inactive). The GI50 (DMS-114) was 18.6 µM (inactive), the GI50 (SF-295) was 38.1 µM (inactive) and the GI50 (ACHN) was 25.8 µM (inactive). The GI50 (786-0) was 19.4 µM (inactive), the GI50 (OVCAR-4) was 22.2 µM (inactive) and the GI50 (OVCAR-3) was 24 µM (inactive). The GI50 (NCI-H226) was 52.4 µM (inactive), the GI50 (SR) was 19.6 µM (inactive) and the GI50 (HL-60) was 6.81 µM (inactive). The GI50 (SNB-75) was 62.2 µM (inactive), the GI50 (SN12C) was 22.3 µM (inactive) and the GI50 (OVCAR-5) was 51.9 µM (inactive). For the same compound, the GI50 (KM-20L2) was 22 µM (inactive), the GI50 (HCC 2998) was 18.1 µM (inactive) and the GI50 (HCT-15) was 20 µM.
With `O=C/C(=C(/Cl)c1ccc(O)cc1)c1ccccc1` the GI50 (HCT-116) was 18.1 µM (inactive), the GI50 (UACC-62) was 13.2 µM (inactive) and the GI50 (CAKI-1) was 27.4 µM (inactive). For the same compound, the GI50 (DMS-114) was 12.3 µM (inactive), the GI50 (SF-295) was 33.3 µM (inactive) and the GI50 (ACHN) was 20.9 µM (inactive). The GI50 (786-0) was 27.8 µM (inactive), the GI50 (OVCAR-4) was 22.2 µM (inactive) and the GI50 (OVCAR-3) was 17.1 µM (inactive). For the same compound, the GI50 (NCI-H226) was > 100 µM (inactive), the GI50 (SR) was > 100 µM (inactive) and the GI50 (HL-60) was 38.5 µM (inactive). The GI50 (SNB-75) was 15.3 µM (inactive), the GI50 (SN12C) was 24.6 µM (inactive) and the GI50 (OVCAR-5) was > 100 µM (inactive). For the same compound, the GI50 (KM-20L2) was 31 µM (inactive), the GI50 (HCC 2998) was 71.9 µM (inactive) and the GI50 (HCT-15) was 16.1 µM.
`CC(C)(C)[C@H]1CO[C@]2(C)[C@@H]3C[C@@H]3C(=O)N12` was tested, and the GI50 (HCT-116) was > 100 µM (inactive), the GI50 (UACC-62) was > 100 µM (inactive) and the GI50 (CAKI-1) was > 100 µM (inactive). For the same compound, the GI50 (DMS-114) was > 100 µM (inactive), the GI50 (SF-295) was > 100 µM (inactive) and the GI50 (ACHN) was > 100 µM (inactive). The GI50 (786-0) was > 100 µM (inactive), the GI50 (OVCAR-4) was > 100 µM (inactive) and the GI50 (OVCAR-3) was > 100 µM (inactive). The GI50 (NCI-H226) was > 100 µM (inactive), the GI50 (SR) was > 100 µM (inactive) and the GI50 (HL-60) was > 100 µM (inactive). The GI50 (SNB-75) was > 100 µM (inactive), the GI50 (SN12C) was > 100 µM (inactive) and the GI50 (OVCAR-5) was > 100 µM (inactive). For the same compound, the GI50 (KM-20L2) was > 100 µM (inactive), the GI50 (HCC 2998) was > 100 µM (inactive) and the GI50 (HCT-15) was greater than 100 µM.
`Cc1cccc(NC2=NC(=O)C(CC(=O)Nc3ccccc3Cl)S2)c1` (stereo not drawn) was tested, and the GI50 (HCT-116) was > 100 µM (inactive), the GI50 (UACC-62) was > 100 µM (inactive) and the GI50 (CAKI-1) was > 100 µM (inactive). For the same compound, the GI50 (DMS-114) was > 100 µM (inactive), the GI50 (SF-295) was > 100 µM (inactive) and the GI50 (ACHN) was > 100 µM (inactive). For the same compound, the GI50 (786-0) was > 100 µM (inactive), the GI50 (OVCAR-4) was > 100 µM (inactive) and the GI50 (OVCAR-3) was > 100 µM (inactive). For the same compound, the GI50 (NCI-H226) was > 100 µM (inactive), the GI50 (SR) was > 100 µM (inactive) and the GI50 (HL-60) was > 100 µM (inactive). The GI50 (SNB-75) was > 100 µM (inactive), the GI50 (SN12C) was > 100 µM (inactive) and the GI50 (OVCAR-5) was > 100 µM (inactive). For the same compound, the GI50 (KM-20L2) was > 100 µM (inactive), the GI50 (HCC 2998) was > 100 µM (inactive) and the GI50 (HCT-15) was greater than 100 µM.
For `CCOC(=O)C1=C(Nc2cccc3ccccc23)OC/C1=N\NC(=O)c1ccccc1O`, the GI50 (HCT-116) was 19.1 µM (inactive), the GI50 (UACC-62) was 6.53 µM (inactive) and the GI50 (CAKI-1) was 7.28 µM (inactive). The GI50 (DMS-114) was 11.4 µM (inactive), the GI50 (SF-295) was 22.8 µM (inactive) and the GI50 (ACHN) was 8.63 µM (inactive). For the same compound, the GI50 (786-0) was 21 µM (inactive), the GI50 (OVCAR-4) was 9.68 µM (inactive) and the GI50 (OVCAR-3) was 10.6 µM (inactive). The GI50 (NCI-H226) was 22.3 µM (inactive), the GI50 (SR) was 7.55 µM (inactive) and the GI50 (HL-60) was 6.93 µM (inactive). For the same compound, the GI50 (SNB-75) was 3.39 µM (inactive), the GI50 (SN12C) was 23.4 µM (inactive) and the GI50 (OVCAR-5) was 20.6 µM (inactive). The GI50 (KM-20L2) was 29 µM (inactive), the GI50 (HCC 2998) was 54.1 µM (inactive) and the GI50 (HCT-15) was 14.7 µM.
`CC1[C@@]2(CCC(C)(C)O2)O[C@@H]2C=C3C4CCC5Cc6nc7c(nc6C[C@@]5(C)C4C[C@H](O)[C@@]3(C)[C@]12O)CC1CCC2C3=C[C@H]4O[C@@]5(O[C@@](C)(CO)C[C@@H]5O)C(C)[C@@]4(O)[C@]3(C)[C@@H](O)CC2[C@]1(C)C7` (stereo partly drawn) was tested, and the GI50 (HCT-116) was 0.12 µM (active), the GI50 (UACC-62) was 0.0508 µM (active) and the GI50 (CAKI-1) was 0.111 µM (active). The GI50 (DMS-114) was 0.0268 µM (active), the GI50 (SF-295) was 0.00807 µM (active) and the GI50 (ACHN) was 0.103 µM (active). For the same compound, the GI50 (786-0) was 0.0168 µM (active), the GI50 (OVCAR-4) was 0.723 µM (active) and the GI50 (OVCAR-3) was 0.736 µM (active). The GI50 (NCI-H226) was 0.0428 µM (active), the GI50 (SR) was 0.0264 µM (active) and the GI50 (HL-60) was 0.0307 µM (active). For the same compound, the GI50 (SNB-75) was 0.00762 µM (active), the GI50 (SN12C) was 0.975 µM (active) and the GI50 (OVCAR-5) was 0.142 µM (active). For the same compound, the GI50 (KM-20L2) was 0.0509 µM (active), the GI50 (HCC 2998) was 0.624 µM (active) and the GI50 (HCT-15) was 0.169 µM.
